Bridge positions count the residues as written; N and C are the ends. Square brackets hold non-standard residues; d marks the D form. Ends that are not written are not given here. Peptide text beside a SMILES is read from it. NMeF = CN[C@@H](Cc1ccccc1)C(=O)O; dOrn = NCCC[C@@H](N)C(=O)O; dDab = NCC[C@@H](N)C(=O)O
Experiments:
[1] = molecular target: T1, NPFF2 receptor (Homo sapiens, UniProt Q9Y5X5); experiment: cAMP functional experiment, NPFF2 receptor (forskolin-induced cAMP accumulation); format: cell-based
T1 construct: expressed in transfected cells; host or cells: HEK293
Method: (§1) The agonistic activity of the cyclopeptide molecule of the present invention against Mu-opioid receptor, Delta-opioid receptor, Kappa-opioid receptor, NPFF1 receptor and NPFF2 receptor was evaluated by detecting the regulation of the cyclopeptide molecule of the present invention on the intracellular accumulation of cyclic adenosine monophosphate (cAMP) induced by Forskolin in HEK293 cells stably expressing these five receptors. The experimental method was: the cells were seeded in 24 well plates with 120000 cells per well, and were cultured for more than 20 hours. At the beginning of the experiment, the culture medium in the culture dish was suck out, and then 500 μL of preheated serum-free medium containing 1 mM of IBMX was added, the mixture was incubated at 37° C. for 10 minutes. Then each 10 μL of the drug to be tested and 10 μM of forskolin (final concentration) were added to each well. The mixture was incubated at 37° C. for 30 minutes. After incubation, all the liquid was suck out from the culture dish, 500 μL of 0.2 N hydrochloric acid was added to each well, the mixture was incubated at room temperature for 30 minutes to promote cell lysis. After lysis was complete, NaOH was added to neutralize the hydrochloric acid solution used for lysis. Then all the liquid was suck out from the culture dish into centrifuge tubes, the liquid was centrifuged at 12000 rpm for 2 minutes. 50 μL was taken to a clean centrifuge tube, 100 μL of 60 μg/μL PKA was added, and 100 μL of TE cAMP buffer was added to the blank control group (B). Another 50 μL of 0.5 μ Ci[^3H]cAMP was added to each of the above centrifuge tubes, the mixture was quickly mixed and incubated at 4° C. for more than 2 hours. After incubation, another 100 μL of activated carbon suspension was added to each tube, the mixture was vortex agitated evenly, placed in an ice bath for 1 minute, centrifuged at 5000 rpm for 4 minutes. 200 μL of supernatant after centrifugation in each tube was suck out to a 24 well plate, with an additional 700 μL of scintillator liquid added per well, then the 24 well plate was sealed with adhesive film, placed for 3 hours, then placed on the scintillation instrument for measurement.
(§2) The inhibitory effect of cAMP was represented by the percentage (% control) of drug inhibition of intracellular cAMP accumulation induced by Forskolin, wherein % control=(cAMP content when treated with Forskolin−cAMP content when Forskolin co-treated with the test drug)/(cAMP content when treated with Forskolin−cAMP content when treated with solvent). The related % control data was represented by mean±S.E.M. The dose-effect relationship of the drug was statistically analyzed using a nonlinear regression model, and the IC50 values of the multi-target cyclopeptide molecule on inhibition of Forskolin induced intracellular cAMP accumulation were calculated using the statistical software GraphPad Prism version 5.0.

[2] = tested on: Kunming male mice; experiment: Photothermal tail flick experiment, oral administration; format: in vivo; conditions: tail flick; for Maximum analgesic time: oral administration at the maximum analgesic dose
Method: (§3) Two administration methods were used: peripheral subcutaneous administration and oral administration. Subsequently, the analgesic activity of the drug was studied using an acute pain model of photothermal tail flick in mice.
1 mL sterile syringe was used for oral administration (p.o.), the pinhead was replaced with a mouse gastric lavage needle, and […] of the drug was orally administered. The skin on the neck and back of the mouse was grasped with the left hand with the abdomen facing upwards. Noted that the mouse's entire body was fixed to vertical, which was beneficial for oral gavage. A gastric lavage needle (No. 12 needle and 1 mL syringe) was held in the right hand and was inserted to the esophagus along the upper jaw which is pressed the tongue tightly from the corner of the mouse's mouth. Gastric lavage fluid can be injected when the needle inserted 2.5 cm. The inserting length of the needle should be determined through practice in advance, as there is a sense of falling into a hole after the needle is inserted. If the injection position was appropriate, it should be very smooth. […] This can cause immediate death of the mouse after gavage.
(§4) The photothermal tail flick experiment is based on the experimental method summarized by D'Amour and Smith to optimize the experimental parameters. The experiment selected Kunming male mice with body weigh 21±2 g, and ambient temperature controlled at 22±2° C. The experimental mice were allowed to drink water freely and were moved from the breeding room to the experimental area for adaptation for 30 minutes before starting the experiment. Then the mice were grab with the right hand and the tail hang freely. Then the mice's tail were placed on a radiation light source, 2-3 mm away from the mice tail. The intensity of radiation heat was adjusted to the tail flick time of mice being 3-5 s, which is the basic pain threshold of photothermal tail flick. The irradiation time of the mice tail should not exceed 10 s to prevent scalding of the mice tail, which was the maximum latency for photothermal tail flick. After administration, time points of 10, 20, 30, 45, 60, 90, 120, 180, 240, 300, 360, and 420 minutes were selected to measure the tail flick latency of mice after administration.
(§5) The analgesic effect of drugs was generally evaluated using the maximum analgesic effect MPE (%), MPE (%)=100×[(pain threshold after administration−basic pain threshold)/(10 seconds−basic pain threshold)]. 50% effective dose (ED50) refers to the corresponding drug dose that causes a 50% effect. ED50 and 95% confidence interval were calculated using MPE (%) and the drug concentration that achieves the maximum analgesic effect MPE (%) by the statistical software GraphPad Prism 5.0. The difference in analgesic effects was statistically analyzed using one-way ANOVA (Dunnett test), *P<0.05, **P<0.01, and ***P<0.001 indicated significance of the difference between the group with only drug injected and the saline group.

[3] = molecular target: T2, Delta-opioid receptor (Homo sapiens, UniProt P41143); experiment: cAMP functional experiment, Delta-opioid receptor (forskolin-induced cAMP accumulation); format: cell-based
T2 construct: expressed in transfected cells; host or cells: HEK293
Method: as §1, §2

[4] = molecular target: T3, Kappa-opioid receptor (Homo sapiens, UniProt P41145); experiment: cAMP functional experiment, Kappa-opioid receptor (forskolin-induced cAMP accumulation); format: cell-based
T3 construct: expressed in transfected cells; host or cells: HEK293
Method: as §1, §2

[5] = tested on: Kunming male mice; experiment: Photothermal tail flick experiment, subcutaneous injection; format: in vivo; conditions: for ED50 value (95% confidence interval), analgesic activity: photothermal tail flick
Method: as §3
Subcutaneous administration on the back was chosen for subcutaneous administration (s.c.). A sterile 1 mL syringe was used and the drug with the volume of 0.1 mL/10 g was injected for administration. The back skin was grasped with the right hand, the needle was tilted in, and the drug was injected subcutaneously into the mouse's back. After the needle was inserted, shook it left and right, and observe to confirm that the needle had indeed entered the subcutaneous area to prevent the needle from puncturing the skin and leaking the drug.
as §4, §5

[6] = molecular target: T4, NPFF1 receptor (Homo sapiens, UniProt Q9GZQ6); experiment: cAMP functional experiment, NPFF1 receptor (forskolin-induced cAMP accumulation); format: cell-based
T4 construct: expressed in transfected cells; host or cells: HEK293
Method: as §1, §2

[7] = molecular target: T5, Mu-opioid receptor (Homo sapiens, UniProt P35372); experiment: cAMP functional experiment, Mu-opioid receptor (forskolin-induced cAMP accumulation); format: cell-based
T5 construct: expressed in transfected cells; host or cells: HEK293
Method: as §1, §2

T2 sequence (P41143 whole entry): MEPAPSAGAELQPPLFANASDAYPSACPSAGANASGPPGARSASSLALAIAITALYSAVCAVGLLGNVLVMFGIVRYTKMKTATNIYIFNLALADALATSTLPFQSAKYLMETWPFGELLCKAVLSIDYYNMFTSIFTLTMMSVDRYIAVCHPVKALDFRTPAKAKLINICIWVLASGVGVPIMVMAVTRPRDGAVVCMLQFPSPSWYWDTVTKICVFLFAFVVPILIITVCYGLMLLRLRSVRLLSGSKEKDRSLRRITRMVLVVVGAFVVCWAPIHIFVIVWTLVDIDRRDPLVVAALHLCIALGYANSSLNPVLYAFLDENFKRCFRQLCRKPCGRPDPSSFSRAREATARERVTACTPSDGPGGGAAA
T5 sequence (P35372 whole entry): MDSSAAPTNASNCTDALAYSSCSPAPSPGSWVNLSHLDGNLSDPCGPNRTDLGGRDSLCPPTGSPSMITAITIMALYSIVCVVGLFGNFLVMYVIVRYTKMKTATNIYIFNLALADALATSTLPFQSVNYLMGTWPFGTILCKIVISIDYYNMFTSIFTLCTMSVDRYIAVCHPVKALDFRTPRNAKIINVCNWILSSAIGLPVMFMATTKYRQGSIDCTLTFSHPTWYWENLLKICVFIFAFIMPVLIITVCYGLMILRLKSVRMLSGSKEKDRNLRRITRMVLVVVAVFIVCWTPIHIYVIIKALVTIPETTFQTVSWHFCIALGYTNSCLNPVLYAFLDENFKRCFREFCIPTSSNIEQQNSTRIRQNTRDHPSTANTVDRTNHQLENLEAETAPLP
T3 sequence (P41145 whole entry): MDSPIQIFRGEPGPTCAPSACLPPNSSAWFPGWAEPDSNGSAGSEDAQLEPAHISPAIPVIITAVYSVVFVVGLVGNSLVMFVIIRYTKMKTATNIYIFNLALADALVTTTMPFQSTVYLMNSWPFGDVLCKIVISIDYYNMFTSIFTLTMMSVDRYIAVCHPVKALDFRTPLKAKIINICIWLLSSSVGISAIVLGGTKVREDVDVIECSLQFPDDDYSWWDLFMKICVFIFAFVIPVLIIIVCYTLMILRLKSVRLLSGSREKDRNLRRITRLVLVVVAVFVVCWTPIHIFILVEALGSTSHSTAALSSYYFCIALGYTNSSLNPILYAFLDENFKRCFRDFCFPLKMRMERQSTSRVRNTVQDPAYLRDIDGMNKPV
T1 sequence (Q9Y5X5 whole entry): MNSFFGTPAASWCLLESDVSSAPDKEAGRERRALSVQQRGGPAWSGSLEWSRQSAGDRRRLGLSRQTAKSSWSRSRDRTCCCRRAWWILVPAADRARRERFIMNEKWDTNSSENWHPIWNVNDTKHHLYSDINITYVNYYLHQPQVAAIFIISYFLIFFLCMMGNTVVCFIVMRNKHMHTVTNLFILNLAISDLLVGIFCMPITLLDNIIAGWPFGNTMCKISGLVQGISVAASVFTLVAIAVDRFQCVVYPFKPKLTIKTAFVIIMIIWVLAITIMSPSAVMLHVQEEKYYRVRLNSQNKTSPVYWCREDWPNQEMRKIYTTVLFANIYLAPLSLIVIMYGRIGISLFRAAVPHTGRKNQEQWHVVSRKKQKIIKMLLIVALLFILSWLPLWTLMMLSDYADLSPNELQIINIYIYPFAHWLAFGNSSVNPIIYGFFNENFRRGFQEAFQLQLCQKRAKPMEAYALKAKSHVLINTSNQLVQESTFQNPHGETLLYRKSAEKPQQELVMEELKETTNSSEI
T4 sequence (Q9GZQ6 whole entry): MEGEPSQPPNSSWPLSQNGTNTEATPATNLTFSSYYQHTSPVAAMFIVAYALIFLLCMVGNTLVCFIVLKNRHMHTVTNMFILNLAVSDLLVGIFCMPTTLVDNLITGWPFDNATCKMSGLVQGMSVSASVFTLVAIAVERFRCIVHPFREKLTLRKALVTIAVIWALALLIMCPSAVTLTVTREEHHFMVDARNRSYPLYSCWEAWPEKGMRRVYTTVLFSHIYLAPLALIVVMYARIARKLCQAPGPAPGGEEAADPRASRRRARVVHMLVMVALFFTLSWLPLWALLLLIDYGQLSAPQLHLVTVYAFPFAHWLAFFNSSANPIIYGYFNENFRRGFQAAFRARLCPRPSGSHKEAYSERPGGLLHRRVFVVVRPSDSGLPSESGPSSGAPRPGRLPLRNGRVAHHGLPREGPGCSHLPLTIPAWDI

Molecule	IC50 [1]	Maximum analgesic time [2]	analgesic duration ([2]; oral administration)	IC50 [3]	IC50 [4]	ED50 value (95% confidence interval), analgesic activity [5]	IC50 [6]	IC50 [7]	oral analgesic activity ([2]; oral administration)	effective analgesic actuation duration ([5]; tail flick)
CN1C(=O)CNC(=O)[C@H](NC(=O)[C@@H](N)Cc2ccc(O)cc2)CCCCNC(=O)CC[C@@H](C(=O)N2CCC[C@H]2C(=O)N[C@@H](CCC(N)=O)C(=O)N[C@@H](CCCNC(=N)N)C(=O)N[C@@H](Cc2ccccc2)C(N)=O)NC(=O)[C@@H]1Cc1ccccc1 [Compound 2, Tyr-c^[2,5][D-Lys-Gly-NMe-Phe-Glu]-Pro-Gln-Arg-Phe-NH2] (H-Y[dK]G[NMeF]EPQRF-NH2; lactam 2-5)	0.0831 µM	30 min	240 min	0.0364 µM	0.0295 µM	17.9 (15.3 to 20.9) μg/kg	0.189 µM	0.0488 µM		
CN1C(=O)CNC(=O)[C@@H](NC(=O)[C@@H](N)Cc2ccc(O)cc2)CCCCNC(=O)C[C@@H](C(=O)N2CCC[C@H]2C(=O)N[C@@H](CCC(N)=O)C(=O)N[C@@H](CCCNC(=N)N)C(=O)N[C@@H](Cc2ccccc2)C(N)=O)NC(=O)[C@@H]1Cc1ccccc1 [Compound 3, Tyr-c^[2,5][Lys-Gly-NMe-Phe-Asp]-Pro-Gln-Arg-Phe-NH2] (H-YKG[NMeF]DPQRF-NH2; lactam 2-5)	0.112 µM	20 min	240 min	0.0282 µM	0.32 µM	25.4 (22.1 to 29.2) μg/kg	0.0289 µM	0.0707 µM		
CN1C(=O)CNC(=O)[C@@H](NC(=O)[C@@H](N)Cc2ccc(O)cc2)CCCCNC(=O)C[C@H](C(=O)N2CCC[C@H]2C(=O)N[C@@H](CCC(N)=O)C(=O)N[C@@H](CCCNC(=N)N)C(=O)N[C@@H](Cc2ccccc2)C(N)=O)NC(=O)[C@@H]1Cc1ccccc1 [Compound 4, Tyr-c^[2,5][Lys-Gly-NMe-Phe-D-Asp]-Pro-Gln-Arg-Phe-NH2] (H-YKG[NMeF][dD]PQRF-NH2; lactam 2-5)	0.0815 µM	20 min	240 min	0.923 µM		30.3 (19.4 to 47.1) μg/kg	0.104 µM	0.166 µM		
CN1C(=O)CNC(=O)[C@H](NC(=O)[C@@H](N)Cc2ccc(O)cc2)CCCCNC(=O)C[C@H](C(=O)N2CCC[C@H]2C(=O)N[C@@H](CCC(N)=O)C(=O)N[C@@H](CCCNC(=N)N)C(=O)N[C@@H](Cc2ccccc2)C(N)=O)NC(=O)[C@@H]1Cc1ccccc1 [Compound 5, Tyr-c^[2,5][D-Lys-Gly-NMe-Phe-D-Asp]-Pro-Gln-Arg-Phe-NH2] (H-Y[dK]G[NMeF][dD]PQRF-NH2; lactam 2-5)	0.19 µM	20 min	240 min	0.345 µM		23.2 (19.1 to 28.2) μg/kg	0.528 µM	0.586 µM		
CN1C(=O)CNC(=O)[C@H](NC(=O)[C@@H](N)Cc2ccc(O)cc2)CC(=O)NCCCC[C@@H](C(=O)N2CCC[C@H]2C(=O)N[C@@H](CCC(N)=O)C(=O)N[C@@H](CCCNC(=N)N)C(=O)N[C@@H](Cc2ccccc2)C(N)=O)NC(=O)[C@@H]1Cc1ccccc1 [Compound 6, Tyr-c^[2,5][D-Asp-Gly-NMe-Phe-Lys]-Pro-Gln-Arg-Phe-NH2] (H-Y[dD]G[NMeF]KPQRF-NH2; lactam 2-5)	0.303 µM	30 min	240 min	0.0742 µM	0.058 µM	15.8 (14.6 to 17.1) μg/kg	0.222 µM	0.0663 µM		
CN1C(=O)CNC(=O)[C@H](NC(=O)[C@@H](N)Cc2ccc(O)cc2)CCCNC(=O)C[C@@H](C(=O)N2CCC[C@H]2C(=O)N[C@@H](CCC(N)=O)C(=O)N[C@@H](CCCNC(=N)N)C(=O)N[C@@H](Cc2ccccc2)C(N)=O)NC(=O)[C@@H]1Cc1ccccc1 [Compound 8, Tyr-c^[2,5][D-Orn-Gly-NMe-Phe-Asp]-Pro-Gln-Arg-Phe-NH2] (H-Y[dOrn]G[NMeF]DPQRF-NH2; lactam 2-5)	0.133 µM	30 min	240 min	0.659 µM	0.139 µM	15.0 (13.8 to 16.4) μg/kg	0.439 µM	0.168 µM		
CN1C(=O)CNC(=O)[C@H](NC(=O)[C@@H](N)Cc2ccc(O)cc2)CCNC(=O)C[C@@H](C(=O)N2CCC[C@H]2C(=O)N[C@@H](CCC(N)=O)C(=O)N[C@@H](CCCNC(=N)N)C(=O)N[C@@H](Cc2ccccc2)C(N)=O)NC(=O)[C@@H]1Cc1ccccc1 [Compound 9, Tyr-c^[2,5][D-Dab-Gly-NMe-Phe-Asp]-Pro-Gln-Arg-Phe-NH2] (H-Y[dDab]G[NMeF]DPQRF-NH2; lactam 2-5)	0.265 µM	30 min	240 min	0.0951 µM	0.0712 µM	16.0 (14.4 to 17.6) μg/kg	0.18 µM	0.0379 µM		
CN1C(=O)CNC(=O)[C@H](NC(=O)[C@@H](N)Cc2ccc(O)cc2)CCCCNC(=O)C[C@@H](C(=O)NCC(=O)N[C@@H](CCC(N)=O)C(=O)N[C@@H](CCCNC(=N)N)C(=O)N[C@@H](Cc2ccccc2)C(N)=O)NC(=O)[C@@H]1Cc1ccccc1 [Compound 12, Tyr-c^[2,5][D-Lys-Gly-NMe-Phe-Asp]-Gly-Gln-Arg-Phe-NH2] (H-Y[dK]G[NMeF]DGQRF-NH2; lactam 2-5)	0.093 µM	20 min	240 min	0.0452 µM	0.0974 µM		0.0586 µM	0.0826 µM		
Tyr-D-Ala-Gly-NMe-Phe-Gly-Pro-Gln-Arg-Phe-NH2 (Y[dA]G[NMeF]GPQRF-NH2) [DN-9, multi-target parent peptide for opioid receptor/neuropeptide FF receptors, chemical template, reference compound]		20 min	90 min			228 µg/kg			only produces strong analgesic activity at a high-dose of 40 mg/kg	90 min
